Results from ChEMBL document CHEMBL5236660, “Design, synthesis, and biological evaluation of quinoxalinone derivatives as potent BRD4 inhibitors” (Bioorg Med Chem, 2023).

How the values were obtained:
HepG2 [1] = assay: Induction of apoptosis in human HepG2 cells assessed as increase in cleaved caspase-3 level at 0.625 to 2.5 uM incubated for 24 hrs by Western blot analysis; type: functional, cell-based; settings: dose 0.625-2.5 µM
HepG2 [2] = assay: Induction of cell cycle arrest in human HepG2 cells assessed as accumulation at G2/M phase at 2.5 uM incubated for 24 hrs by flow cytometry (Rvb= 14.05%); type: functional
HepG2 [3] = assay: Induction of apoptosis in human HepG2 cells assessed as viable cells at 0.625 uM incubated for 24 hrs by Annexin-V/PI staining based flow cytometry (Rvb=94.0%); type: functional; settings: read-out: Activity
HepG2 [4] = assay: Induction of apoptosis in human HepG2 cells assessed as early apoptotic cells at 0.625 uM incubated for 24 hrs by Annexin-V/PI staining based flow cytometry (Rvb=4.48%); type: functional
HepG2 [5] = assay: Induction of cell cycle arrest in human HepG2 cells assessed as accumulation at G2/M phase at 1.25 uM incubated for 24 hrs by flow cytometry (Rvb= 14.05%); type: functional
HepG2 [6] = assay: Inhibition of colony formation in human HepG2 cells at 10 uM incubated for 8 days with drug replacement every 2 days by crystal violet staining based imaging analysis; type: functional; settings: HepG2, 192 h, time 8 day
[7] = target: Bromodomain-containing protein 4 (Homo sapiens, UniProt O60885); assay: Inhibition of BRD4 BD1 (unknown origin) by TR-FRET assay
HepG2 [8] = assay: Induction of apoptosis in human HepG2 cells assessed as late apoptotic cells at 0.625 uM incubated for 24 hrs by Annexin-V/PI staining based flow cytometry (Rvb=0.66%); type: functional
HepG2 [9] = assay: Induction of apoptosis in human HepG2 cells assessed as early apoptotic cells at 1.25 uM incubated for 24 hrs by Annexin-V/PI staining based flow cytometry (Rvb=4.48%); type: functional
HepG2 [10] = assay: Induction of apoptosis in human HepG2 cells assessed as total apoptotic cells at 5 uM incubated for 24 hrs by Annexin-V/PI staining based flow cytometry (Rvb=5.14%); type: functional
HepG2 [11] = assay: Antimigratory activity against human HepG2 cells assessed as decrease in MMP-9 expression at 0.625 to 2.5 uM incubated 24 hrs by Western blot analysis; type: functional, cell-based; settings: dose 0.625-2.5 µM
HepG2 [12] = assay: Induction of cell cycle arrest in human HepG2 cells assessed as accumulation at S phase at 2.5 uM incubated for 24 hrs by flow cytometry (Rvb= 20.1%); type: functional
HepG2 [13] = assay: Induction of apoptosis in human HepG2 cells assessed as early apoptotic cells at 2.5 uM incubated for 24 hrs by Annexin-V/PI staining based flow cytometry (Rvb=4.48%); type: functional
[14] = Cytotoxicity against human GES1 cells assessed as reduction in cell viability incubated for 72 hrs by MTT assay; type: toxicity, cell-based
HepG2 [15] = assay: Induction of apoptosis in human HepG2 cells assessed as viable cells at 2.5 uM incubated for 24 hrs by Annexin-V/PI staining based flow cytometry (Rvb=94.0%); type: functional; settings: read-out: Activity
HepG2 [16] = assay: Antimigratory activity against human HepG2 cells assessed as decrease in Snail expression at 0.625 to 2.5 uM incubated 24 hrs by Western blot analysis; type: functional, cell-based; settings: dose 0.625-2.5 µM
HepG2 [17] = assay: Induction of cell cycle arrest in human HepG2 cells assessed as accumulation at S phase at 5 uM incubated for 24 hrs by flow cytometry (Rvb= 20.1%); type: functional
HepG2 [18] = assay: Inhibition of c-myc expression in human HepG2 cells at 0.625 to 2.5 uM incubated for 24 hrs by Western blot analysis; type: functional, cell-based; settings: dose 0.625-2.5 µM
HepG2 [19] = assay: Antiproliferative activity against human HepG2 cells assessed as reduction in cell viability incubated for 72 hrs by MTT assay; type: functional, cell-based; settings: HepG2, 72 h
HepG2 [20] = assay: Induction of apoptosis in human HepG2 cells assessed as late apoptotic cells at 2.5 uM incubated for 24 hrs by Annexin-V/PI staining based flow cytometry (Rvb=0.66%); type: functional
HepG2 [21] = assay: Induction of apoptosis in human HepG2 cells assessed as total apoptotic cells at 2.5 uM incubated for 24 hrs by Annexin-V/PI staining based flow cytometry (Rvb=5.14%); type: functional
HepG2 [22] = assay: Induction of apoptosis in human HepG2 cells assessed as necrotic cells at 0.625 uM incubated for 24 hrs by Annexin-V/PI staining based flow cytometry (Rvb=0.85%); type: functional
HepG2 [23] = assay: Induction of cell cycle arrest in human HepG2 cells assessed as accumulation at G0/G1 phase at 1.25 uM incubated for 24 hrs by flow cytometry (Rvb= 46.5%); type: functional
HepG2 [24] = assay: Inhibition of colony formation in human HepG2 cells at 0.625 to 10 uM incubated for 8 days with drug replacement every 2 days by crystal violet staining based imaging analysis; type: functional, cell-based; settings: dose 0.625-10 µM, time 8.0 day
HepG2 [25] = assay: Induction of apoptosis in human HepG2 cells assessed as viable cells at 5 uM incubated for 24 hrs by Annexin-V/PI staining based flow cytometry (Rvb=94.0%); type: functional; settings: read-out: Activity
HepG2 [26] = assay: Induction of apoptosis in human HepG2 cells assessed as total apoptotic cells at 1.25 uM incubated for 24 hrs by Annexin-V/PI staining based flow cytometry (Rvb=5.14%); type: functional
HepG2 [27] = assay: Induction of cell cycle arrest in human HepG2 cells assessed as accumulation at G0/G1 phase at 5 uM incubated for 24 hrs by flow cytometry (Rvb= 46.5%); type: functional
HepG2 [28] = assay: Antimigratory activity against human HepG2 cells assessed as increase in E-cadherin expression at 0.625 to 2.5 uM incubated 24 hrs by Western blot analysis; type: functional, cell-based; settings: dose 0.625-2.5 µM
HepG2 [29] = assay: Induction of apoptosis in human HepG2 cells assessed as necrotic cells at 2.5 uM incubated for 24 hrs by Annexin-V/PI staining based flow cytometry (Rvb=0.85%); type: functional
HepG2 [30] = assay: Induction of cell cycle arrest in human HepG2 cells assessed as accumulation at S phase at 0.625 uM incubated for 24 hrs by flow cytometry (Rvb= 20.1%); type: functional
MCF7 = assay: Antiproliferative activity against human MCF7 cells assessed as reduction in cell viability incubated for 72 hrs by MTT assay; type: functional, cell-based; settings: MCF7, 72 h
HepG2 [31] = assay: Induction of apoptosis in human HepG2 cells assessed as increase in p21 level at 0.625 to 2.5 uM incubated for 24 hrs by Western blot analysis; type: functional, cell-based; settings: dose 0.625-2.5 µM
HT-29 = assay: Antiproliferative activity against human HT-29 cells assessed as reduction in cell viability incubated for 72 hrs by MTT assay; type: functional, cell-based; settings: HT-29, 72 h
HepG2 [32] = assay: Induction of cell cycle arrest in human HepG2 cells assessed as accumulation at G0/G1 phase at 0.625 uM incubated for 24 hrs by flow cytometry (Rvb= 46.5%); type: functional
HepG2 [33] = assay: Induction of apoptosis in human HepG2 cells assessed as late apoptotic cells at 1.25 uM incubated for 24 hrs by Annexin-V/PI staining based flow cytometry (Rvb=0.66%); type: functional
HepG2 [34] = assay: Induction of cell cycle arrest in human HepG2 cells assessed as accumulation at G2/M phase at 5 uM incubated for 24 hrs by flow cytometry (Rvb= 14.05%); type: functional

- IC50 [7]: 0.0823 µM
- IC50 (HepG2 [19]): 1.13 µM
- IC50 (MCF7): 22.1 µM
- IC50 (HT-29): > 50 µM
SMILES: CC(=O)Nc1ccc(Oc2ccc(F)cc2F)c(-c2ccc3[nH]c(=O)c(C)nc3c2)c1
- Activity (HepG2 [1]): Dose-Dependent Effect
- Activity (HepG2 [2]): 24.4%
- viability at 0.625 µM (HepG2 [3]): 92.9%
- Activity (HepG2 [4]): 5.3%
- Activity (HepG2 [5]): 22.6%
- inhibition at 10 µM (HepG2 [6]): 80%
- Activity (HepG2 [8]): 0.96%
- Activity (HepG2 [9]): 6.32%
- Activity (HepG2 [10]): 11.66%
- Activity (HepG2 [11]): Dose-Dependent Effect
- Activity (HepG2 [12]): 9.5%
- Activity (HepG2 [13]): 7.22%
- IC50 at 72 h [14]: 57.2 µM
- viability at 2.5 µM (HepG2 [15]): 90.6%
- Activity (HepG2 [16]): Dose-Dependent Effect
- Activity (HepG2 [17]): 12.4%
- inhibition (HepG2 [18]): Dose-Dependent Effect
- Activity (HepG2 [20]): 1.39%
- Activity (HepG2 [21]): 8.61%
- Activity (HepG2 [22]): 0.8%
- Activity (HepG2 [23]): 51%
- inhibition (HepG2 [24]): Dose-Dependent Effect
- viability at 5 µM (HepG2 [25]): 87.5%
- Activity (HepG2 [26]): 7.66%
- Activity (HepG2 [27]): 54.9%
- Activity (HepG2 [28]): Dose-Dependent Effect
- Activity (HepG2 [29]): 0.9%
- Activity (HepG2 [30]): 20%
- Activity (HepG2 [31]): Dose-Dependent Effect
- Activity (HepG2 [32]): 46.1%
- Activity (HepG2 [33]): 1.37%
- Activity (HepG2 [34]): 21%
